# Experimental data from patent publication US5900406A, “Use of antibiotics of the type 2-deoxystreptamine substituted with aminosugars to inhibit growth of microorganisms containing group I introns” (NZYM, Inc., priority 1991, dated 1999).
# Legend:
# [1] = test system: td intron (group I intron of the thymidylate synthase gene of phage T4, truncated version); conditions: td intron self-splicing; read-out: Michaelis constant (Km) for GTP; cited from earlier work
# [2] = test system: group II bI1 intron (first intron of the yeast mitochondrial apocytochrome b gene); assay: In vitro splicing of a group II intron in the presence of aminoglycosides; type: biochemical; conditions: concentrations ≤5 mM
# Method: FIG. 2c, Precursor -A of the group II bli intron (first intron of the yeast mitochondrial apocytochrome b gene) was incubated in a splicing buffer (40 mM Tris-HCl, pH 7.5, 60 mM MgCl2, 625 mM (NH4)2 SO4, 2 mM spermidine) at 42° C. for 60 min with increasing amounts of gentamicin as indicated. Splicing products were separated as in FIG. 2 A. C is an unincubated control.
# (§1) Materials and Methods: In vitro splicing experiments were performed with a truncated version of the td gene, containing 79 nt of exon I, 265 nt of intron sequences containing only the catalytic core (delta P6-2) and 21 nt of exon H (Schroeder, von Ahsen, & Belfort, 199 1, Biochemistry 30, 3295). The plasmids containing the Tetrahymena rRNA intron and the yeast mitochondrial cob intron I (the group II intron) were pBGST7 (Been & Cech, 1986, Cell 47, 207) and pBSbIl (Schmelzer and Schweyen, 1986, Cell 46, 557), respectively. The sunY intron is described in Michel et al. (1990, Genes & Development 4, 777). DNA was prepared by the alkaline-lysis procedure and linearized with appropriate restriction enzymes. Transcription was performed in a total volume of 20 μl at 30° C. for one (1) hour in buffer containing 40 mM Tris-HCl pH 7.5, 3 mM MgCl2, 0.4 mM spermidine, 1 mM of each NTP, 5 mM DTIC, 10 units T7 RNA polymerase (Boehringer Mannheim), 10 μCi alpha-^35 S-CTP and 10 units RNAse inhibitor (Boehringer Mannheim). […]
# [3] = test system: td intron (group I intron of the thymidylate synthase gene of phage T4, truncated version); type: biochemical
# Method: In vitro-transcribed and gel-purified^8 preRNA from a truncated version of the td intron^21 was incubated in a splicing buffer (50 mM Tris-HCl, pH 7.5, 5 mM MgCl2, 0.4 mM spermidine) for 10 min at 37° C. with GTP and gentamicin as indicated. Samples were separated on 5% acrylamide/7 M urea gels. RNA species are as follows: In-E2, intron-exon 2; L-ln, linear intron; E1-E2, ligated exons; E1, exon 1.
# FIGS. 3a-c, Splicing experiments were done with the td intron as described in FIG. 2a, using several members of each family of aminoglycoside antibiotics (gentamicin, kanamycin and neomycin). Structures of the antibiotics can be found in Davies and Yagisaura in Biochemistry and Genetic Function Of Commercially Important Antibiotics, p. 329-354, Addison-Wesley, London, (1983) "Conc" is the antibiotic concentration at which about 50% inhibition was observed.
# To monitor the splice process in vitro precursor RNA containing exon1, intron and exon2 was synthesized by in vitro transcription using bacteriophage RNA polymerase. During transcription, a radioactive labeled nucleotide was present in the nucleotide mixture and was incorporated in the RNA. This radioactive labeled RNA was then subjected to splicing conditions and after reaction the RNA splice products were separated from each other by electrophoresis on a denaturing acrylamide gel. The gel was dried and exposed for autoradiography.
# Unspliced precursor RNA from the thymidylate synthase gene of the phage T4, which had been transcribed in vitro, and purified as previously described, (Schroeder, R., von Ahsen, U. & Belfort, M. Biochemistry 30, 3295-3303 (1991)) was incubated with increasing amounts of gentamicin under normal splicing conditions.
# (§2) Materials and Methods: In vitro splicing experiments were performed with a truncated version of the td gene, containing 79 nt of exon I, 265 nt of intron sequences containing only the catalytic core (delta P6-2) and 21 nt of exon H (Schroeder, von Ahsen, & Belfort, 199 1, Biochemistry 30, 3295). The plasmids containing the Tetrahymena rRNA intron and the yeast mitochondrial cob intron I (the group II intron) were pBGST7 (Been & Cech, 1986, Cell 47, 207) and pBSbIl (Schmelzer and Schweyen, 1986, Cell 46, 557), respectively. The sunY intron is described in Michel et al. (1990, Genes & Development 4, 777). DNA was prepared by the alkaline-lysis procedure and linearized with appropriate restriction enzymes. Transcription was performed in a total volume of 20 μl at 30° C. for one (1) hour in buffer containing 40 mM Tris-HCl pH 7.5, 3 mM MgCl2, 0.4 mM spermidine, 1 mM of each NTP, 5 mM […], 10 units T7 RNA polymerase (Boehringer Mannheim), 10 μCi alpha-^35 S-CTP and 10 units RNAse inhibitor (Boehringer Mannheim). The reaction mixture was loaded on a 5% polyacrylamide/7 M urea gel. Precursor RNA was cut out of the gel and soaked in 400 μl elution buffer (10 mM Tris-HCl pH 7.5, 10 mM EDTA, 3.5 M NH4 OAc, 0.1% SDS) for two hours. After ethanol precipitation, the RNA was dissolved in H2 O-- before splicing experiments were performed the RNA was incubated in splicing buffer (40 mM Tris-HCl pH 7.5, 8 mM MgCl2, 0.4 mM spermidine) for 2 min at 56° C. For splicing of the suny intron and the Tetrahymena intron 50 mM NH4 Cl or 200 mM NaCl were added, respectively. Splicing was initiated by addition of guanosine at the appropriate concentration at 37° C. When splicing was to be inhibited by antibiotic, the antibiotic was added immediately before the guanosine. Splicing reactions were performed at 37° C. for 10'.
# [4] = test system: group I intron from the ribosomal RNA from Tetrahymena thermophila; assay: In vitro splicing inhibition of the Tetrahymena rRNA group I intron; type: biochemical; conditions: read-out: concentration giving 50% inhibition of splicing
# Method: To see whether this inhibition could be extended to all group I introns, the group I intron from the ribosomal RNA from Tetrahymena thermophila was tested for sensitivity towards gentamicin and again the splice reaction was inhibited. To test the specificity of this interaction of gentamicin with this type of catalytic RNA […]
# as §1, with “enzymes.” for “enzymes. Transcription was performed in a total volume of 20 μl at 30° C. for one (1) hour in buffer containing 40 mM Tris-HCl pH 7.5, 3 mM MgCl2, 0.4 mM spermidine, 1 mM of each NTP, 5 mM DTIC, 10 units T7 RNA polymerase (Boehringer Mannheim), 10 μCi alpha-^35 S-CTP and 10 units RNAse inhibitor (Boehringer Mannheim).”
# [5] = test system: sunY intron (shortened version, construct SYC1.3); assay: In vitro splicing inhibition of the sunY group I intron (GTP incorporation assay); type: biochemical, T4-phage
# Method: as §2, with “DNA” for “Materials and Methods: In vitro splicing experiments were performed with a truncated version of the td gene, containing 79 nt of exon I, 265 nt of intron sequences containing only the catalytic core (delta P6-2) and 21 nt of exon H (Schroeder, von Ahsen, & Belfort, 199 1, Biochemistry 30, 3295). The plasmids containing the Tetrahymena rRNA intron and the yeast mitochondrial cob intron I (the group II intron) were pBGST7 (Been & Cech, 1986, Cell 47, 207) and pBSbIl (Schmelzer and Schweyen, 1986, Cell 46, 557), respectively. The sunY intron is described in Michel et al. (1990, Genes & Development 4, 777). DNA”, “10'. […] Samples were separated on 5% acrylamide/7 M urea gels.” for “10'.”
Compound,Km [1],inhibition of splicing of the group II intron [2],lowest concentration with splicing inhibition activity ([3]; activity at a concentration as low as),antibiotic concentration affecting the first step of splicing ([3]; first step affected only at this concentration),"IC50 ([3]; in vitro splicing, 37° C., 10 min, read-out: concentration giving approximately 50% inhibition of the second splice step of the td intron)",IC50 [4],concentration to which the sunY intron is sensitive [5],concentration at which the second step (cleavage at the 3' splice-site and exon ligation) is completely inhibited ([3]; GTP 2.5 μM or 100 μM),"effect on the first step of splicing ([3]; concentrations ≤2 mM, whatever the guanosine concentration)"
Nc1nc2c(ncn2[C@@H]2O[C@H](COP(=O)(O)OP(=O)(O)OP(=O)(O)O)[C@@H](O)[C@H]2O)c(=O)[nH]1 [GTP],1 µM,,,,,,,,
NC[C@H]1O[C@H](O[C@H]2[C@H](O)[C@@H](O[C@H]3O[C@H](CO)[C@@H](O)[C@H](N)[C@H]3O)[C@H](N)C[C@@H]2N)[C@H](N)C[C@@H]1O [Tobramycin],,not inhibited,0.5 µM,100 µM,~0.5 µM,,,,
gentamicin,,not inhibited,,,,~100 µM,100 µM,2.5 µM,little effect
